For assay [1], the target named is T1, Human COX II (Homo sapiens, UniProt P35354).
T1 construct: made in house; host or cells: SF9 insect cells, recombinant baculovirus (transfer vector pVL1393)
T1 sequence (P35354 18-604): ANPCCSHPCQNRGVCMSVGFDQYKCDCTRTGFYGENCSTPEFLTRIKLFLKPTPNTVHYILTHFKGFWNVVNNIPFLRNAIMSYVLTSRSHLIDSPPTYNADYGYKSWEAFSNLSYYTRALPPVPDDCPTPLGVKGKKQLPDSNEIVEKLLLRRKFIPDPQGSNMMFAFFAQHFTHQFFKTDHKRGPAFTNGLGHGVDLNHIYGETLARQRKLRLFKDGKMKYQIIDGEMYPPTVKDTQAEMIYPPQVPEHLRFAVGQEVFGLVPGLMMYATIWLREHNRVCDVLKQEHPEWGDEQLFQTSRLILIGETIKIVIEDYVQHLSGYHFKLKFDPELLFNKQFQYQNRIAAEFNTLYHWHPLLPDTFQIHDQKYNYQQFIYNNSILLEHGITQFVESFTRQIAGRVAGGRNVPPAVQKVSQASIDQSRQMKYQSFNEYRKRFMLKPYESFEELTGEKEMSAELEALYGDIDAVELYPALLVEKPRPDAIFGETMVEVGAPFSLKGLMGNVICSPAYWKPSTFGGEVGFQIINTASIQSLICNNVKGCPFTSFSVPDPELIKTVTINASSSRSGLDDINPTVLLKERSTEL
The assay is described as follows: Evaluation of COX II activity in vitro (recombinant enzyme, PGE2 ELISA). The format is biochemical. To be noted: 10 μM arachidonic acid, pre-incubation 10-20 minutes, pH 8.0; read-out: Human COX II ID50. The protocol:
(§1) Evaluation of COX I and COX II activity in vitro
The COX II inhibition activity of the compounds of this invention illustrated in the Examples was determined by the following methods.
(§2) a. Preparation of recombinant COX baculoviruses
(§3) A 2.0 kb fragment containing the coding region of either human or murine COX-I or human or murine COX-II was cloned into a BamH1 site of the baculovirus transfer vector pVL1393 (Invitrogen) to generate the baculovirus transfer vectors for COX-I and COX-II in a manner similar to the method of D. R. O'Reilly et al (Baculovirus Expression Vectors: A Laboratory Manual (1992)). Recombinant baculoviruses were isolated by transfecting 4 μg of baculovirus transfer vector DNA into SF9 insect cells ([…]) along with 200 ng of linearized baculovirus plasmid DNA by the calcium phosphate method. See M. D. Summers and G. E. Smith, A Manual of Methods for Baculovirus Vectors and Insect Cell Culture Procedures, Texas Agric. Exp. Station Bull. 1555 (1987). Recombinant viruses were purified by three rounds of plaque purification and high titer (10E7-10E8 pfu/ml) stocks of virus were prepared. For large scale production, SF9 insect cells were infected in 10 liter fermentors (0.5×10^6 /ml) with the recombinant baculovirus stock such that the multiplicity of infection was 0.1. After 72 hours the cells were centrifuged and the cell pellet homogenized in Tris/Sucrose (50 mM: 25%, pH 8.0) containing 1% 3-[(3-cholamidopropyl)dimethylammonio]-1-propanesulfonate (CHAPS). The homogenate was centrifuged at 10,000'G for 30 minutes, and the resultant supernatant was stored at -80° C. before being assayed for COX activity.
(§4) b. Assay for COX I and COX II activity:
(§5) COX activity was assayed as PGE2 formed/μg protein/time using an ELISA to detect the prostaglandin released. CHAPS-solubilized insect cell membranes containing the appropriate COX enzyme were incubated in a potassium phosphate buffer (50 mM, pH 8.0) containing epinephrine, phenol, and heme with the addition of arachidonic acid (10 μM). Compounds were pre-incubated with the enzyme for 10-20 minutes prior to the addition of arachidonic acid. Any reaction between the arachidonic acid and the enzyme was stopped after ten minutes at 37° C./room temperature by transferring 40 μl of reaction mix into 160 μl ELISA buffer and 25 μM indomethacin. The PGE2 formed was measured by standard ELISA technology (Cayman Chemical).
For orientation: An ELISA detects its analyte on a solid surface through an enzyme-linked reagent.

Assay [2] deals with T2, Human COX I (Homo sapiens, UniProt P23219).
T2 construct: made in house; host or cells: SF9 insect cells, recombinant baculovirus (transfer vector pVL1393)
Description: Evaluation of COX I activity in vitro (recombinant enzyme, PGE2 ELISA). The assay is classed as biochemical. The note with it: 10 μM arachidonic acid, pre-incubation 10-20 minutes, pH 8.0; read-out: Human COX I ID50.
Excerpt: as §1, §2, §3, §4, §5

T2 sequence (P23219 24-599): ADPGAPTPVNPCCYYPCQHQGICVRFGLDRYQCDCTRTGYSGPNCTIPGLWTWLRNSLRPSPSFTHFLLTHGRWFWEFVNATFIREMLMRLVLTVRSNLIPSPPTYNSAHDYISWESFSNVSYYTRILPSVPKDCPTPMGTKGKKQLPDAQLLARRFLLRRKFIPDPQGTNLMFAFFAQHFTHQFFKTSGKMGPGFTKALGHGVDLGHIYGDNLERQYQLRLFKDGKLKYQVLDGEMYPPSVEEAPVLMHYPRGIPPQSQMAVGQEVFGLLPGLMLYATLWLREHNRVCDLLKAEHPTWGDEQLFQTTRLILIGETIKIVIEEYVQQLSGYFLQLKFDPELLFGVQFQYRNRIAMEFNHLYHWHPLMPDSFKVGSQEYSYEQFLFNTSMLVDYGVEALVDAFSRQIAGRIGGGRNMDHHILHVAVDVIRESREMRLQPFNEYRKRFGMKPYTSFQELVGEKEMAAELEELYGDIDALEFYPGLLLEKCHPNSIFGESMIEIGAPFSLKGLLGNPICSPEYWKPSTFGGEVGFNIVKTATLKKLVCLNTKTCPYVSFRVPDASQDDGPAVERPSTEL

As to `COc1ccc2c(c1F)CSc1c(C(F)(F)F)nn(-c3ccc(S(N)(=O)=O)cc3)c1-2` [Example 1, 4-[1,5-Dihydro-6-fluoro-7-methoxy-3-(trifluoromethyl)-[2]benzothiopyrano[4,3-c]pyrazol-1-yl]benzenesulfonamide], the IC50 in assay [1] was less than 0.1 µM; in assay [2] it was 2.7 µM.
`NS(=O)(=O)c1ccc(-n2nc(C(F)(F)F)c3c2-c2ccccc2OC3)cc1` [Example 3, 4-[1,4-Dihydro-3-(trifluoromethyl)-[1]benzopyrano[4,3-c]pyrazol-1-yl]benzenesulfonamide]: the IC50 in assay [1] amounted to 1.3 µM.
On to `COC(=O)c1nn(-c2ccc(S(N)(=O)=O)cc2)c2c1COc1ccccc1-2` [Example 4, Methyl[1-[4-(aminosulfonyl)phenyl]-1,4-dihydro-[1]benzopyrano[4,3-c]pyrazol-3-yl]carboxylate], for which, in assay [1], the IC50 came out at 0.5 µM.
Consider `NS(=O)(=O)c1ccc(-n2nc(C(F)(F)F)c3c2-c2cc(F)ccc2OC3)cc1` [Example 5, 4-[1,4-Dihydro-8-fluoro-3-(trifluoromethyl)-[1]benzopyrano[4,3-c]pyrazol-1-yl]benzenesulfonamide], for which the figures for the IC50 in assay [1] and in assay [2] were 4.8 µM and 24.4 µM, respectively.
As for `NS(=O)(=O)c1ccc(-n2nc(C(F)(F)F)c3oc4ccccc4c32)cc1` [Example 6, 4-[3-(Trifluoromethyl)-1H-benzofuro[3,2-c]pyrazol-1-yl]benzenesulfonamide], the results for the IC50 in assay [1] and in assay [2] were 23.5 µM and 11.1 µM, respectively.
For the molecule `COC(=O)c1nn(-c2ccc(S(N)(=O)=O)cc2)c2c1CSc1ccccc1-2` [Example 8, Methyl[1-[(4-aminosulfonyl)phenyl]-1,4-dihydro-[1]benzothiopyrano[4,3-c]pyrazol-3-yl]carboxylate], in assay [1], the IC50 was found to be 0.5 µM.
Regarding `NS(=O)(=O)c1ccc(-n2nc(C(F)(F)F)c3c2-c2ccc(Cl)c(Cl)c2SC3)cc1` [Example 9, 4-[6,7-Dichloro-1,4-dihydro-3-(trifluoromethyl)-[1]benzothiopyrano[4,3-c]pyrazol-1-yl]benzenesulfonamide], the IC50 was 48.2 µM in assay [1] and more than 100 µM in assay [2].
For the molecule `NS(=O)(=O)c1ccc(-n2nc(C(F)(F)F)c3c2-c2ccc(F)cc2SC3)cc1` [Example 10, 4-[1,4-Dihydro-7-fluoro-3-(trifluoromethyl)-[1]benzothiopyrano[4,3-c]pyrazol-1-yl]benzenesulfonamide], the results for the IC50 in assay [1] and in assay [2] were less than 0.1 µM and 6.2 µM, respectively.
The corresponding values for `CC(C)c1cccc2c1SCc1c(C(F)(F)F)nn(-c3ccc(S(N)(=O)=O)cc3)c1-2` [Example 11, 4-[1,4-Dihydro-6-isopropyl-3-(trifluoromethyl)-[1]benzothiopyrano[4,3-c]pyrazol-1-yl]benzenesulfonamide] are 52 µM and more than 100 µM.
As for `COc1cc2c(cc1OC)-c1c(c(C(F)(F)F)nn1-c1ccc(S(N)(=O)=O)cc1)CS2` [Example 12, 4-[1,4-Dihydro-7,8-dimethoxy-3-(trifluoromethyl)-[1]benzothiopyrano[4,3-c]pyrazol-1-yl]benzenesulfonamide], the IC50 was 95 µM in assay [1] and more than 100 µM in assay [2].
With `COc1ccc2c(c1)SCc1c(C(F)(F)F)nn(-c3ccc(S(N)(=O)=O)cc3)c1-2` [Example 13, 4-[1,4-Dihydro-7-methoxy-3-(trifluoromethyl)-[1]benzothiopyrano[4,3-c]pyrazol-1-yl]benzenesulfonamide], the IC50 in assay [1] and in assay [2] was less than 0.1 µM throughout.
As for `Cc1ccc2c(c1)SCc1c(C(F)(F)F)nn(-c3ccc(S(N)(=O)=O)cc3)c1-2` [Example 14, 4-[1,4-Dihydro-7-methyl-3-(trifluoromethyl)-[1]benzothiopyrano[4,3-c]pyrazol-1-yl]benzenesulfonamide], the IC50 in assay [1] worked out at 0.2 µM; in assay [2] it was 4.6 µM.
With `NS(=O)(=O)c1ccc(-n2nc(C(F)(F)F)c3c2-c2ccc(Cl)cc2SC3)cc1` [Example 15, 4-[7-Chloro-1,4-dihydro-3-(trifluoromethyl)-[1]benzothiopyrano[4,3-c]pyrazol-1-yl]benzenesulfonamide], the values for the IC50 in assay [1] and in assay [2] were less than 0.1 µM and 0.3 µM, respectively.
As to `NS(=O)(=O)c1ccc(-n2nc(C(F)(F)F)c3c2-c2ccccc2CS3)cc1` [Example 16, 4-[1,5-Dihydro-3-(trifluoromethyl)-[2]benzothiopyrano[4,3-c]pyrazol-1-yl]benzenesulfonamide], the IC50 in assay [1] is less than 0.1 µM.
Consider `Cc1ccc2c(c1)CSc1c(C(F)(F)F)nn(-c3ccc(S(N)(=O)=O)cc3)c1-2` [Example 17, 4-[1,5-Dihydro-7-methyl-3-(trifluoromethyl)-[2]benzothiopyrano[4,3-c]pyrazol-1-yl]benzenesulfonamide], for which the values for the IC50 in assay [1] and in assay [2] were less than 0.1 µM and 0.8 µM, respectively.
On to `Cc1ccc2c(c1)CSc1c(C(F)(F)F)nn(-c3ccc(S(C)(=O)=O)cc3)c1-2` [Example 18, 1,5-Dihydro-1-[4-(methylsulfonyl)phenyl]-7-methyl-3-(trifluoromethyl)-[2]benzothiopyrano[4,3-c]pyrazole], for which the IC50 is less than 0.1 µM in assay [1] and 3.7 µM in assay [2].
Regarding `NS(=O)(=O)c1ccc(-n2nc(C(F)(F)F)c3c2-c2ccc(Cl)cc2CS3)cc1` [Example 19, 4-[7-Chloro-1,5-dihydro-3-(trifluoromethyl)-[2]benzothiopyrano[4,3-c]pyrazol-1-yl]benzenesulfonamide], the IC50 in assay [1] is less than 0.1 µM; in assay [2] it was 0.3 µM.
Consider `COc1ccc2c(c1)CSc1c(C(F)(F)F)nn(-c3ccc(S(N)(=O)=O)cc3)c1-2` [Example 20, 4-[1,5-Dihydro-7-methoxy-3-(trifluoromethyl)-[2]benzothiopyrano[4,3-c]pyrazol-1-yl]benzenesulfonamide], for which the IC50 in assay [1] and in assay [2] was less than 0.1 µM throughout.
For `N#Cc1nn(-c2ccc(S(N)(=O)=O)cc2)c2c1CSc1ccccc1-2` [Example 22, 1-[4-(Aminosulfonyl)phenyl]-1,4-dihydro-[1]benzothiopyrano[4,3-c]pyrazol-3-carbonitrile], the IC50 in assay [1] came out at 3.5 µM; in assay [2], 51 µM.
The matching figures for `NS(=O)(=O)c1ccc(-n2nc(C(F)(F)F)c3c2-c2cc(Cl)sc2C[S+]3[O-])cc1` (stereo not drawn) [Example 24, 4-[7-chloro-1,5-dihydro-3-trifluoromethyl-thieno[3',2':4,5]thiopyrano-s-oxide[3,2-c]pyrazol-1-yl]benzenesulfonamide]: 45.6 µM and 91.1 µM.
The matching figures for `COc1ccc2c(c1F)CSc1c(C(F)F)nn(-c3ccc(S(N)(=O)=O)cc3)c1-2` [Example 25, 4-[3-(difluoromethyl)-1,5-dihydro-6-fluoro-7-methoxy-[2]benzothiopyrano[4,3-c]pyrazol-1-yl]benzenesulfonamide]: less than 0.1 µM and more than 100 µM.
Turning to `NS(=O)(=O)c1ccc(-n2nc(C(F)(F)F)c3c2-c2ccc(F)cc2CS3)cc1` [Example 26, 4-[1,5-dihydro-7-fluoro-3-(trifluoromethyl)-[2]benzothiopyrano[4,3-c]pyrazol-1-yl]benzenesulfonamide], the values for the IC50 in assay [1] and in assay [2] were less than 0.1 µM and 0.3 µM, respectively.
As to `NC(=O)c1nn(-c2ccc(S(N)(=O)=O)cc2)c2c1SCc1cc(F)ccc1-2` [Example 27, [1-(4-aminosulfonylphenyl)-1,5-dihydro-7-fluoro-[2]benzothiopyrano[4,3-c]pyrazol-3-yl]carboxamide], the results for the IC50 in assay [1] and in assay [2] were 4.7 µM and more than 100 µM, respectively.

Values taken from US5547975A, “Benzopyranopyrazolyl derivatives for the treatment of inflammation” (priority 1994, dated 1996).
